Test results from PubChem BioAssay (NCI).
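Each compound was tested at five concentrations against cells in 96-well plates for 48 hours. TGI denotes the concentration required for complete inhibition of growth.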

Columns and labels:
Assay in all cases: NCI tumour cell line growth inhibition, 48 h
MDA-MB-435 = tested on: MDA-MB-435
UO-31 renal = tested on: UO-31 renal
OVCAR-8 ovarian = tested on: OVCAR-8 ovarian
NCI-H522 lung = tested on: NCI-H522 lung
MOLT-4 leukemia = tested on: MOLT-4 leukemia
SK-MEL-5 melanoma = tested on: SK-MEL-5 melanoma
CCRF-CEM leukemia = tested on: CCRF-CEM leukemia
A498 renal = tested on: A498 renal
T-47D breast = tested on: T-47D breast
HL-60(TB) leukemia = tested on: HL-60(TB) leukemia
MDA-N = tested on: MDA-N
RPMI-8226 leukemia = tested on: RPMI-8226 leukemia
K-562 leukemia = tested on: K-562 leukemia
SNB-75 CNS = tested on: SNB-75 CNS
HOP-62 NSCLC = tested on: HOP-62 NSCLC
EKVX NSCLC = tested on: EKVX NSCLC
SK-MEL-2 melanoma = tested on: SK-MEL-2 melanoma
RXF 393 renal = tested on: RXF 393 renal
NCI-H460 lung = tested on: NCI-H460 lung
HCT-15 colon = tested on: HCT-15 colon
HOP-92 NSCLC = tested on: HOP-92 NSCLC
NCI/ADR-RES ovarian = tested on: NCI/ADR-RES ovarian
UACC-257 melanoma = tested on: UACC-257 melanoma
SF-295 CNS = tested on: SF-295 CNS
SK-MEL-28 melanoma = tested on: SK-MEL-28 melanoma
IGROV1 ovarian = tested on: IGROV1 ovarian
SNB-19 CNS = tested on: SNB-19 CNS
PC-3 prostate = tested on: PC-3 prostate
KM12 colon = tested on: KM12 colon
LOX IMVI melanoma = tested on: LOX IMVI melanoma
A549 NSCLC = tested on: A549 NSCLC
DU-145 prostate = tested on: DU-145 prostate
TK-10 renal = tested on: TK-10 renal
SK-OV-3 ovarian = tested on: SK-OV-3 ovarian
SN12C renal = tested on: SN12C renal
HCC-2998 colon = tested on: HCC-2998 colon
ACHN renal = tested on: ACHN renal
OVCAR-5 ovarian = tested on: OVCAR-5 ovarian
MALME-3M melanoma = tested on: MALME-3M melanoma
COLO 205 colon = tested on: COLO 205 colon
HCT-116 colon = tested on: HCT-116 colon
NCI-H23 lung = tested on: NCI-H23 lung
786-0 renal = tested on: 786-0 renal
U251 CNS = tested on: U251 CNS
UACC-62 melanoma = tested on: UACC-62 melanoma
SR leukemia = tested on: SR leukemia
NCI-H226 lung = tested on: NCI-H226 lung
M14 melanoma = tested on: M14 melanoma
MCF7 breast = tested on: MCF7 breast
CAKI-1 renal = tested on: CAKI-1 renal
MDA-MB-231 breast = tested on: MDA-MB-231 breast
SF-268 CNS = tested on: SF-268 CNS
OVCAR-4 ovarian = tested on: OVCAR-4 ovarian
HS 578T breast = tested on: HS 578T breast
HT29 colon = tested on: HT29 colon
OVCAR-3 ovarian = tested on: OVCAR-3 ovarian
SF-539 CNS = tested on: SF-539 CNS
SW-620 colon = tested on: SW-620 colon

## O=C1[C@@H](O)[C@@H]2CCCC[C@@]23CCCN13
MDA-MB-435
  TGI: > 100 µM
UO-31 renal
  TGI: > 100 µM
OVCAR-8 ovarian
  TGI: > 100 µM
NCI-H522 lung
  TGI: > 100 µM
MOLT-4 leukemia
  TGI: > 100 µM
SK-MEL-5 melanoma
  TGI: > 100 µM
CCRF-CEM leukemia
  TGI: > 100 µM
A498 renal
  TGI: > 100 µM
T-47D breast
  TGI: > 100 µM
HL-60(TB) leukemia
  TGI: > 100 µM
MDA-N
  TGI: > 100 µM
RPMI-8226 leukemia
  TGI: > 100 µM
K-562 leukemia
  TGI: > 100 µM
SNB-75 CNS
  TGI: > 100 µM
HOP-62 NSCLC
  TGI: > 100 µM
EKVX NSCLC
  TGI: > 100 µM
SK-MEL-2 melanoma
  TGI: > 100 µM
RXF 393 renal
  TGI: > 100 µM
NCI-H460 lung
  TGI: > 100 µM
HCT-15 colon
  TGI: > 100 µM
HOP-92 NSCLC
  TGI: > 100 µM
NCI/ADR-RES ovarian
  TGI: > 100 µM
UACC-257 melanoma
  TGI: > 100 µM
SF-295 CNS
  TGI: > 100 µM
SK-MEL-28 melanoma
  TGI: > 100 µM
IGROV1 ovarian
  TGI: > 100 µM
SNB-19 CNS
  TGI: > 100 µM
PC-3 prostate
  TGI: > 100 µM
KM12 colon
  TGI: > 100 µM
LOX IMVI melanoma
  TGI: > 100 µM
A549 NSCLC
  TGI: > 100 µM
DU-145 prostate
  TGI: > 100 µM
TK-10 renal
  TGI: > 100 µM
SK-OV-3 ovarian
  TGI: > 100 µM
SN12C renal
  TGI: > 100 µM
HCC-2998 colon
  TGI: > 100 µM
ACHN renal
  TGI: > 100 µM
OVCAR-5 ovarian
  TGI: > 100 µM
MALME-3M melanoma
  TGI: > 100 µM
COLO 205 colon
  TGI: > 100 µM
HCT-116 colon
  TGI: > 100 µM
NCI-H23 lung
  TGI: > 100 µM
786-0 renal
  TGI: > 100 µM
U251 CNS
  TGI: > 100 µM
UACC-62 melanoma
  TGI: > 100 µM
SR leukemia
  TGI: > 100 µM
NCI-H226 lung
  TGI: > 100 µM
M14 melanoma
  TGI: > 100 µM
MCF7 breast
  TGI: > 100 µM
CAKI-1 renal
  TGI: > 100 µM
MDA-MB-231 breast
  TGI: > 100 µM
SF-268 CNS
  TGI: > 100 µM
OVCAR-4 ovarian
  TGI: > 100 µM
HS 578T breast
  TGI: > 100 µM
HT29 colon
  TGI: > 100 µM

## Cn1c(=O)ccc2c(=O)c3ccccc3oc21
MDA-MB-435
  TGI: > 100 µM
UO-31 renal
  TGI: 16.8 µM
OVCAR-8 ovarian
  TGI: > 100 µM
NCI-H522 lung
  TGI: > 100 µM
SK-MEL-5 melanoma
  TGI: > 100 µM
CCRF-CEM leukemia
  TGI: > 100 µM
A498 renal
  TGI: > 100 µM
T-47D breast
  TGI: > 100 µM
HL-60(TB) leukemia
  TGI: > 100 µM
MDA-N
  TGI: > 100 µM
K-562 leukemia
  TGI: > 100 µM
HOP-62 NSCLC
  TGI: > 100 µM
EKVX NSCLC
  TGI: > 100 µM
SK-MEL-2 melanoma
  TGI: > 100 µM
RXF 393 renal
  TGI: > 100 µM
NCI-H460 lung
  TGI: > 100 µM
HCT-15 colon
  TGI: > 100 µM
HOP-92 NSCLC
  TGI: > 100 µM
NCI/ADR-RES ovarian
  TGI: > 100 µM
SF-295 CNS
  TGI: > 100 µM
SK-MEL-28 melanoma
  TGI: > 100 µM
IGROV1 ovarian
  TGI: > 100 µM
SNB-19 CNS
  TGI: > 100 µM
PC-3 prostate
  TGI: > 100 µM
KM12 colon
  TGI: > 100 µM
LOX IMVI melanoma
  TGI: > 100 µM
A549 NSCLC
  TGI: > 100 µM
DU-145 prostate
  TGI: > 100 µM
TK-10 renal
  TGI: > 100 µM
SK-OV-3 ovarian
  TGI: > 100 µM
SN12C renal
  TGI: > 100 µM
HCC-2998 colon
  TGI: > 100 µM
OVCAR-3 ovarian
  TGI: > 100 µM
ACHN renal
  TGI: > 100 µM
OVCAR-5 ovarian
  TGI: > 100 µM
MALME-3M melanoma
  TGI: > 100 µM
COLO 205 colon
  TGI: > 100 µM
HCT-116 colon
  TGI: > 100 µM
NCI-H23 lung
  TGI: > 100 µM
SF-539 CNS
  TGI: > 100 µM
U251 CNS
  TGI: > 100 µM
UACC-62 melanoma
  TGI: > 100 µM
SR leukemia
  TGI: > 100 µM
NCI-H226 lung
  TGI: > 100 µM
M14 melanoma
  TGI: > 100 µM
CAKI-1 renal
  TGI: > 100 µM
MDA-MB-231 breast
  TGI: > 100 µM
SF-268 CNS
  TGI: > 100 µM
OVCAR-4 ovarian
  TGI: > 100 µM
HS 578T breast
  TGI: > 100 µM
HT29 colon
  TGI: > 100 µM
SW-620 colon
  TGI: > 100 µM
